According to patent publication US11235001B2, “RUNX inhibitor” (KYOTO UNIVERSITY, priority 2016, dated 2022):
Like-named read-outs stand apart in the source and are kept apart here.

Key:
[1] = system: E-selectin, P-selectin, Tie2, ICAM-1, VCAM-1, Jagged-1; assay: qRT-PCR of adhesion molecule genes in HUVEC; format: cell-based, human; details: 0.5 μM, 1 μM, or 5 μM, 6 hours
[2] = system: HL60; details: HL60, p53null; for IC50: 48 hours
[3] = system: DU-145 cells; details: read-out: IC50 (μM) in DU-145 cells; DU-145 (androgen-independent), 48 hours
[4] = system: ROR1 and ROR2; assay: Western blotting of ROR1 and ROR2 in DAOY; format: cell-based, human; details: 1 μM, 24 hours
Description: Cells were washed twice with ice cold phosphate-buffered saline (PBS) and harvested in protein lysis buffer [50 mM Tris (pH 7.4), 100 mM NaCl, 0.1 mM EDTA, 1 mM phenylmethylsulfonyl fluoride, 1 mM β-glycerophosphate, 2.5 mM sodium pyrophosphate, 1 mM Na3VO4, lx protease inhibitor (Roche) and PhosSTOP (Roche)]. Whole cell extracts were separated by SDS-polyacrylamide gel electrophoresis (SDS-PAGE) and electrotransferred onto polyvinylidene difluoride membranes. Membranes were probed with the following antibodies: anti-Ctip1 antibody (Abcam, ab19487), anti-TRIM24 antibody (Bethyl Laboratories, Inc), anti-RUNX1 antibody (A-2), anti-GAPDH (FL-335), anti-p21 (C-19), anti-Bax (N-20) antibodies (Santa Cruz Biotechnology, Inc.), anti-RUNX2, anti-RUNX3, anti-p53 antibodies (Cell Signaling Technology), anti-CBFβ antibody (FL-182, Santa Cruz Biotechnology, Inc.), anti-cleaved caspase-3 antibody (5A1E, Cell Signaling Technology), anti-PARP antibody (46D11, Cell Signaling Technology). […] Blots were detected using Chemi-Lumi One Super (nacalai tesque, Inc.) and ChemiDoc™ XRS+ Imager (Bio-Rad Laboratories, Inc.), as recommended by the manufacturers. Protein levels were quantified with Image Lab Software (Bio-Rad Laboratories, Inc.).
To DAOY cells, 1 μM Chb-M′ was administered. […] The expression of ROR1 was too weak to be detected.

[5] = system: c-kit; assay: FACS of cell surface c-kit, LAD2 mast cells; format: cell-based, human; details: LAD2 (wild-type c-kit), 10 μM, 18-hour treatment; DMSO 68.3
From the text: Mast cells cause symptoms or diseases such as allergic reaction by receptor-mediated activation. In addition, c-kit signal transduction enhances release of chemical mediators from stimulated mast cells. The effect of the RUNX inhibitor on human mast cells was examined. As human mast cells, a LAD2 cell line (expressing wild-type c-kit) and an HMC-1.2 cell line (expressing mutated c-kit) were used. The HMC-1.2 cell line has KIT D816V mutation and V560G mutation. Wild-type c-kit is a SCF receptor and the cell proliferation is dependent on SCF. Accordingly, regarding the LAD2 cell line, 50 ng/ml of SCF was administered and experiments were performed as described below. The HMC-1.2 cell line has a mutation in c-kit and the cell proliferation is independent of SCF. Accordingly, regarding the HMC-1.2 cell line, SCF was not administered and experiments were performed as described below. As the RUNX inhibitor, Chb-M′ was used. […]
To the LAD2 cell line, 10 μM Chb-M′ was administered. After 3 hours and 18 hours, different antibodies were used for immunostaining of c-kit expressed on the cell surface, and the expression levels were analyzed by FACS (fluorescence-activated cell sorter). […] After 18 hours, different antibodies were used for immunostaining of c-kit expressed on the cell surface, and the expression levels were analyzed by FACS. […]

[6] = system: HUVEC (human umbilical vein endothelial cell line); assay: Proliferation of HUVEC; format: cell-based
[7] = system: UF1 (p53Null)

## CN(C)CCCNC(=O)c1cc(NC(=O)c2cc(NC(=O)c3cc(NC(=O)c4cc(NC(=O)CCCNC(=O)c5nc(NC(=O)c6nc(NC(=O)c7cc(NC(=O)c8nc(NC(=O)CCNC(=O)CCCc9ccc(N(CCCl)CCCl)cc9)cn8C)cn7C)cn6C)cn5C)cn4C)cn3C)cn2C)cn1C [Chb-M′]
[1]
  E-selectin, P-selectin, and VCAM-1 mRNA levels: markedly suppressed
[2]; concomitant use of Chb-M′ and PRIMA-1, Chou-Talalay, CI<1 synergism
  CI (Fa = 0.5): 1.10
[2]; read-out: IC50 (μM) of Chb-M′ in concomitant use with PRIMA-1 (5 μM), with 5 μM PRIMA-1
  IC50: 11.7 µM
[2]; read-out: IC50 (μM) of Chb-M′ single agent administration
  IC50: 11.4 µM
[3]
  IC50: 1.82 µM
[4]
  Expression of ROR2 at a protein level: suppressed
[5]
  MFI (mean fluorescent intensity) of surface c-kit: 48.8
[6]
  IC50: ≥ 50 µM
[7]; culture time 48 hours
  IC50: 1750 nM
[7]; culture time 72 hours
  IC50: 674 nM
